{"source": "ChEMBL document CHEMBL1155607", "about": "“Antigiardial activity of isoflavones from Dalbergia frutescens bark” (J Nat Prod, 2000)", "key": {"Giardia intestinalis [1]": {"test_system": "Giardia intestinalis", "experiment": "[…] activity against Giardia intestinalis ATCC 30888 at 10 ug/mL after 48 hrs by XTT assay", "type": "functional, organism-based", "details": "Giardia duodenalis"}, "Giardia intestinalis [2]": {"test_system": "Giardia intestinalis", "experiment": "Antifungal activity against Giardia intestinalis", "type": "functional, organism-based", "details": "Giardia duodenalis"}, "Giardia intestinalis [3]": {"test_system": "Giardia intestinalis", "experiment": "[…] activity against Giardia intestinalis ATCC 30888 after 48 hrs by XTT assay", "type": "functional, organism-based", "details": "Giardia duodenalis"}, "Giardia intestinalis [4]": {"test_system": "Giardia intestinalis", "experiment": "[…] activity against Giardia intestinalis infected in C57B mouse assessed as intestinal motile trophozoites count at 10 mg/day administered 3 day postinfection for 4 days", "type": "functional, Giardia duodenalis"}, "Mus musculus [5]": {"test_system": "Mus musculus", "experiment": "Toxicity in C57B mouse assessed as induction of adverse effect on appearance at 40 mg/kg, po administered once daily for 3 days", "type": "organism-based", "parameters": "dose 40 mg/kg, route oral", "details": "in vivo, 72 h"}, "Mus musculus [6]": {"test_system": "Mus musculus", "experiment": "Toxicity in C57B mouse assessed as adverse effect on body weight at 40 mg/kg, po administered once daily for 3 days", "type": "organism-based", "parameters": "dose 40 mg/kg, route oral", "details": "in vivo, 72 h"}, "Trichomonas [7]": {"test_system": "Trichomonas", "experiment": "Antimicrobial activity against Trichomonas up to 25 ug/mL", "type": "functional, organism-based"}, "Mus musculus [8]": {"test_system": "Mus musculus", "experiment": "Toxicity in C57B mouse assessed as induction of adverse feeding behavior at 40 mg/kg, po administered once daily for 3 days", "type": "organism-based", "parameters": "dose 40 mg/kg, route oral", "details": "in vivo, 72 h"}, "Giardia intestinalis [9]": {"test_system": "Giardia intestinalis", "experiment": "[…] activity against Giardia intestinalis ATCC 30888 assessed as impairment of parasite motility after 4 hrs", "type": "functional, organism-based", "details": "Giardia duodenalis"}, "Mus musculus [10]": {"test_system": "Mus musculus", "experiment": "Toxicity in C57B mouse assessed as induction of adverse grooming behavior at 40 mg/kg, po administered once daily for 3 days", "type": "organism-based", "parameters": "dose 40 mg/kg, route oral", "details": "in vivo, 72 h"}, "Vero": {"test_system": "Vero", "experiment": "Cytotoxicity against african green monkey Vero cells up to 50 ug/mL after 48 hrs by neutral red dye assay", "type": "cell-based", "details": "chlorocebus sabaeus"}, "Giardia intestinalis [11]": {"test_system": "Giardia intestinalis", "experiment": "[…] activity against Giardia intestinalis infected in C57B mouse assessed as increase in disease cure rate at 10 mg/day administered 3 day postinfection for 4 days", "type": "functional, organism-based", "details": "Giardia duodenalis"}, "Giardia intestinalis [12]": {"test_system": "Giardia intestinalis", "experiment": "[…] activity against Giardia intestinalis ATCC 30888 assessed as impairment of parasite motility after 2 hrs", "type": "functional, organism-based", "details": "Giardia duodenalis"}, "Giardia intestinalis [13]": {"test_system": "Giardia intestinalis", "experiment": "[…] activity against Giardia intestinalis infected in C57B mouse assessed as decrease in intestinal parasite load at 10 mg/day administered 3 day postinfection for 4 days", "type": "functional, organism-based", "details": "Giardia duodenalis"}, "Mus musculus [14]": {"test_system": "Mus musculus", "experiment": "Toxicity in C57B mouse assessed as induction of adverse effect on gross behavior at 40 mg/kg, po administered once daily for 3 days", "type": "organism-based", "parameters": "dose 40 mg/kg, route oral", "details": "in vivo, 72 h"}, "Trichomonas [15]": {"test_system": "Trichomonas", "experiment": "Antimicrobial activity against Trichomonas", "type": "functional, organism-based"}}, "note": "Calls of active or inactive are those of the source. No cut-off for these calls is given here.", "data": [{"smiles": "COc1cc2c(=O)c(-c3ccc(O)cc3)coc2cc1O", "values": [{"measurement": "Activity", "setting": "Giardia intestinalis [1]", "value": "inactive"}]}, {"smiles": "COc1ccc(-c2coc3cc(O)c(OC)cc3c2=O)cc1O", "values": [{"measurement": "Activity", "setting": "Giardia intestinalis [1]", "value": "inactive"}]}, {"smiles": "Oc1cc(O)c2c(c1)O[C@H](c1ccc(O)c(O)c1)[C@H](O)C2", "note": "[(-)-EPICATECHIN]", "values": [{"measurement": "IC50", "setting": "Giardia intestinalis [2]", "value": "< 1", "unit": "µg/mL"}]}, {"smiles": "COc1ccc(-c2coc3cc(O)cc(O)c3c2=O)cc1", "note": "[BIOCHANIN]", "values": [{"measurement": "IC50", "setting": "Giardia intestinalis [3]", "value": 3.5, "unit": "µg/mL"}]}, {"smiles": "COc1ccc(-c2coc3cc(O)c(OC)cc3c2=O)cc1", "note": "[CASTANIN]", "values": [{"measurement": "IC50", "setting": "Giardia intestinalis [3]", "value": "> 5", "unit": "µg/mL"}]}, {"smiles": "COc1cc2c(cc1-c1coc3cc(O)ccc3c1=O)OCO2", "note": "[CUNEATIN]", "values": [{"measurement": "IC50", "setting": "Giardia intestinalis [3]", "value": "> 10", "unit": "µg/mL"}, {"measurement": "Activity", "setting": "Giardia intestinalis [1]", "value": "inactive"}]}, {"smiles": "O=c1c(-c2ccc(O)cc2)coc2cc(O)ccc12", "note": "[DAIDZEIN]", "values": [{"measurement": "IC50", "setting": "Giardia intestinalis [3]", "value": 3.75, "unit": "µg/mL"}]}, {"smiles": "COc1ccc(-c2coc3cc(O)ccc3c2=O)cc1", "note": "[FORMONONETIN]", "values": [{"measurement": "Activity", "setting": "Giardia intestinalis [4]", "value": 0.1}, {"measurement": "Activity", "setting": "Mus musculus [5]", "value": "Non-toxic"}, {"measurement": "Activity", "setting": "Mus musculus [6]", "value": "Non-toxic"}, {"measurement": "IC50", "setting": "Giardia intestinalis [3]", "value": 0.03, "unit": "µg/mL"}, {"measurement": "Activity", "setting": "Trichomonas [7]", "value": "Active"}, {"measurement": "Activity", "setting": "Mus musculus [8]", "value": "Non-toxic"}, {"measurement": "IC50", "setting": "Giardia intestinalis [9]", "value": "< 1", "unit": "µg/mL"}, {"measurement": "Activity", "setting": "Mus musculus [10]", "value": "Non-toxic"}, {"measurement": "Activity", "setting": "Vero", "value": "Non-toxic"}, {"measurement": "Activity", "setting": "Giardia intestinalis [11]", "value": "Active"}, {"measurement": "IC50", "setting": "Giardia intestinalis [12]", "value": "< 1", "unit": "µg/mL"}, {"measurement": "Activity", "setting": "Giardia intestinalis [13]", "value": "Active"}, {"measurement": "Activity", "setting": "Mus musculus [14]", "value": "Non-toxic"}]}, {"smiles": "COc1cc2c(=O)c(-c3ccc4c(c3)OCO4)coc2cc1O", "note": "[FUJIKINETIN]", "values": [{"measurement": "IC50", "setting": "Giardia intestinalis [3]", "value": 1.5, "unit": "µg/mL"}]}, {"smiles": "O=c1c(-c2ccc(O)cc2)coc2cc(O)cc(O)c12", "note": "[GENISTEIN]", "values": [{"measurement": "IC50", "setting": "Giardia intestinalis [3]", "value": "> 5", "unit": "µg/mL"}]}, {"smiles": "Cc1ncc([N+](=O)[O-])n1CCO", "note": "[METRONIDAZOLE]", "values": [{"measurement": "IC50", "setting": "Giardia intestinalis [3]", "value": 0.1, "unit": "µg/mL"}, {"measurement": "Activity", "setting": "Trichomonas [15]", "value": "Active"}, {"measurement": "Activity", "setting": "Giardia intestinalis [9]", "value": "inactive"}, {"measurement": "Activity", "setting": "Giardia intestinalis [12]", "value": "inactive"}]}, {"smiles": "O=c1c(-c2ccc3c(c2)OCO3)coc2cc(O)ccc12", "note": "[PSEUDOBAPTOGENIN]", "values": [{"measurement": "IC50", "setting": "Giardia intestinalis [3]", "value": 0.56, "unit": "µg/mL"}]}]}
